Tests used:
[1] = 298.15 K, in water with undefined pH; cited from earlier work
[2] = Dissolution of solid samples under dynamic conditions, side-by-side cell; format: physicochemical; conditions: for DE60, dissolution efficacy at 60 min / DPP, dissolution performance parameter / Q15, amount of RLZ dissolved at 15 min: buffer pH 6.8, 310 K; for Q15, amount of RLZ dissolved at 15 min: RLZ amount of 100 mg daily dose; for Dose dissolved during 180 min: buffer pH 6.8, 310.15 K
Procedure: The volume of the donor compartment was 7 mL. The powdered samples were placed in the donor cell. Then, 7 mL of buffer pH 6.8 was added to the donor compartment (start of the experiment). The solution was stirred with a stirring bar at a fixed speed of 500 rpm. The cell was maintained at 310.15 K during the experiment via water circulating. The samples of the solutions (V = 0.4 mL) from the donor cell were withdrawn every 5, 10, 15, 20, 25, 30, 40, 60, 90, 120, and 180 min followed by immediate replacement with fresh medium. The experiment lasted 3 h. The samples from the donor cell were filtered (syringe nylon filter, 13 mm diameter, pore size 0.45 μm). The concentrations of the samples were measured in a 96-well UV black plate (Costar) using a spectrophotometer (Spectramax 190; Molecular devices, Molecular Devices Corporation, San Jose, CA, USA). The kinetic curves of the dissolution/release of pure RLZ and RLZ from the solid samples were obtained.
The dissolution performance parameter (DPP), was calculated as follows:(16) DPP=AUCactual/AUCtheoretical×100% where AUCactual is the integral area under the curve C0Ct, and AUCtheoretical is the integral area under the curve CmaxCmax. Dissolution efficacy after 60 min (DE60)—a percentage of the area of the rectangle described by 100% dissolution at 60 min was determined by the calculation of the area under a dissolution curve up to 60 min by the following equation [49]:(17) DE60=∫060Qdt/Q100%×60×100% where Q is the percentage of the dissolved drug, t is the dissolution time point at 60 min.

[3] = Permeation under dynamic conditions (D/P setup), cellulose membrane; format: in vitro ADME; conditions: RC membrane, 310.15 K
Excerpt: The membrane of regenerated cellulose MWCO 12–14 kDa (Visking dialysis tubing MWCO 12–14 kDa, Medicell Membranes Ltd., London, UK) was applied as a barrier between the donor and receptor cells with an effective surface area of 1.77 cm^2. In addition, the PermeaPad barrier (PP) (PHABIOC, Germany, https://www.permeapad.com (accessed on 1 February 2023)) and polydimethylsiloxane-polycarbonate (55% polydimethylsiloxane and 45% polycarbonate, 40 μm in thickness) membrane “Carbosil” (PDS) (PENTAMED, Moscow, Russia, www.penta-med.ru) were used in a series of tests. The volume of the receptor compartment was the same as the donor one—7 mL. The donor and receptor cells were assembled with a membrane between them. The receptor compartment was filled with 7 mL of buffer pH 6.8. In the case of the samples with CD, the receptor solution contained the amount of CD equivalent to that in the solid sample. The solution in the receptor cell was stirred at 500 rpm. The constant temperature of 310.15 K was maintained. […]
Quantitative analysis of the permeation was evaluated using the flux (J) through the membrane which was determined as a slope of the permeation profiles representing the amount of permeated compound over the surface area (dQ/A) versus the time (t) in accordance with the equation:(20) J=dQ/A×dt

[4] = RLZ/CD stability constant from phase-solubility diagrams, van't Hoff thermodynamics; format: physicochemical; conditions: for Complexation (stability) constant KCS of RLZ/CD complex: 1:1 complex
Procedure: The standard (at 298.15 K) enthalpy change ( ΔHC0,S ) and the standard entropy change ( ΔSC0,S ) upon complex formation were calculated with the help of the integral form of the van’t Hoff’s equation:(4) lnKCS=−ΔHC0,S/RT+ΔSC0,S/R where T = 298.15 K, and R is the universal gas constant. A plot of lnKCS versus 1/T produces Slope=−ΔHC0,S/R and intercept equal to ΔSC0,S/R . The standard (at 298.15 K) change of the complexation Gibbs energy ( ΔGC0,S ) was calculated as follows:(5) ΔGC0,S=−RTlnKCS

Row | DE60, dissolution efficacy at 60 min [2] [%] | DPP, dissolution performance parameter [2] [%] | Q15, amount of RLZ dissolved at 15 min [2] [%] | Increase of flux across the membrane, 30–180 min versus up to 30 min [3] [fold] | Molecule | Stability constant of cyclodextrin complex with RLZ [1] [M⁻¹] | other results
1 | – | – | – | – | COC[C@H]1O[C@@H]2O[C@H]3[C@H](O)[C@@H](OC)[C@@H](O[C@H]4[C@H](O)[C@@H](OC)[C@@H](O[C@H]5[C@H](O)[C@@H](OC)[C@@H](O[C@H]6[C@H](O)[C@@H](OC)[C@@H](O[C@H]7[C@H](O)[C@@H](OC)[C@@H](O[C@H]8[C@H](O)[C@@H](OC)[C@@H](O[C@H]1[C@H](O)[C@H]2OC)O[C@@H]8COC)O[C@@H]7COC)O[C@@H]6COC)O[C@@H]5COC)O[C@@H]4COC)O[C@@H]3COC [DM-β-CD, 2,6-di-O-methyl-β-cyclodextrin] | 1609.1 | –
2 | 30.0 | 46.2 | 22.9 | 1.3 | Nc1nc2ccc(OC(F)(F)F)cc2s1 [RLZ_raw] | – | Dose dissolved during 180 min ([2]; listed as raw RLZ): 62%
3 | – | – | – | – | OC[C@H]1O[C@@H]2O[C@H]3[C@H](O)[C@@H](O)[C@@H](O[C@H]4[C@H](O)[C@@H](O)[C@@H](O[C@H]5[C@H](O)[C@@H](O)[C@@H](O[C@H]6[C@H](O)[C@@H](O)[C@@H](O[C@H]7[C@H](O)[C@@H](O)[C@@H](O[C@H]1[C@H](O)[C@H]2O)O[C@@H]7CO)O[C@@H]6CO)O[C@@H]5CO)O[C@@H]4CO)O[C@@H]3CO [α-CD, α-cyclodextrin] | – | Fold lower association constant of RLZ as compared to SBE-β-CD [4]: approximately 11 fold; Complexation (stability) constant KCS of RLZ/CD complex ([4]; pH 6.8, 310.15 K): 102.3 M⁻¹
4 | – | – | – | – | sulfobutylether-β-cyclodextrin [SBE-β-CD] | – | Fold more stable RLZ complex as compared to α-CD ([4]; from Table 2): 11 fold; Complexation (stability) constant KCS of RLZ/CD complex ([4]; pH 6.8, 298.15 K): 1116.0 M⁻¹
5 | – | – | – | – | CC(O)COC[C@H]1O[C@@H]2O[C@H]3[C@H](O)[C@@H](O)[C@@H](O[C@H]4[C@H](O)[C@@H](O)[C@@H](O[C@H]5[C@H](O)[C@@H](O)[C@@H](O[C@H]6[C@H](O)[C@@H](O)[C@@H](O[C@H]7[C@H](O)[C@@H](O)[C@@H](O[C@H]8[C@H](O)[C@@H](O)[C@@H](O[C@H]1[C@H](O)[C@H]2O)O[C@@H]8COCC(C)O)O[C@@H]7COCC(C)O)O[C@@H]6COCC(C)O)O[C@@H]5COCC(C)O)O[C@@H]4COCC(C)O)O[C@@H]3COCC(C)O (stereo partly drawn) [HP-β-CD, hydroxypropyl-β-cyclodextrin] | 2327 | –
6 | 39.9 | 57.0 | 28.3 | 1.3 | Nc1nc2ccc(OC(F)(F)F)cc2s1 [RLZ_gr] | – | Dose dissolved during 180 min ([2]; listed as ground RLZ): 72%; Similarity factor f2 ([2]; reference raw RLZ, f2 > 50 shows similarity): 49.9

— paper PMC11206789, “Controlling the Solubility, Release Rate and Permeation of Riluzole with Cyclodextrins” (Pharmaceutics, 2024)
